From US7101878B1 (Agouron Pharmaceuticals, Inc., priority 1998, dated 2006)

What follows are compounds tested against T1, mouse GnRH receptor (Mus musculus, UniProt Q01776) (assay: Radioligand binding, 125I-GnRH-A, 293 cells expressing mouse GnRH receptors). Details: 10 uM; read-out: % Inhib. @ 10 uM mGnRH.
T1 construct: expressed in transfected cells; host or cells: 293 cells
T1 sequence (Q01776 1-327): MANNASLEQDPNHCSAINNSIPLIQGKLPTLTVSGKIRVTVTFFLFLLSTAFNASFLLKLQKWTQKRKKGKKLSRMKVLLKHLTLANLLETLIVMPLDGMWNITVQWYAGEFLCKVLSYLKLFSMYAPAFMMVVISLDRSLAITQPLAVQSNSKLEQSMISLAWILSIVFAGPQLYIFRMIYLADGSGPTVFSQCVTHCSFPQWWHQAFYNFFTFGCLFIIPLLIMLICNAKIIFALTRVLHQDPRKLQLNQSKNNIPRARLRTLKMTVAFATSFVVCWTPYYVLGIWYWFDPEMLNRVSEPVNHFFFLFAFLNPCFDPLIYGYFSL
How it was run: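 Bound label captured on 0.1% polyethyleneimine-treated GF/C filters, washed three times with PBS, counted. IC50 derived; identical set-up for every species.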

| Compound | inhibition at 10 µM |
| --- | --- |
| Cc1cc2c(cc1Cc1ccc(C(=O)N(CC(C)C)CC(C)C)o1)C(C)(C)CCC2(C)C [drawing 1501] | 85% |
| Cc1cc2c(cc1Cc1ccc(C(=O)N(CCC#N)C3CCCC3)o1)C(C)(C)CCC2(C)C | 88% |
| Cc1cc2c(cc1Cc1ccc(C(=O)N(CCCN3CCN(C)CC3)Cc3ccc(Cl)c(Cl)c3)o1)C(C)(C)CCC2(C)C | 104% |
| Cc1cc2c(cc1Cc1ccc(C(=O)N3CC4(C)CC3CC(C)(C)C4)o1)C(C)(C)CCC2(C)C (centres unmarked) | 100% |
| COC(CN(C)C(=O)c1ccc(Cc2cc3c(cc2C)C(C)(C)CCC3(C)C)o1)OC [drawing 1549] | 90% |
| COc1cc2c(cc1OC)C(c1cccc(Br)c1)N(C(=O)c1ccc(Cc3cc4c(cc3C)C(C)(C)CCC4(C)C)o1)CC2 (centres unmarked) | -23% |
| C=CCN(C(=O)c1ccc(Cc2cc3c(cc2C)C(C)(C)CCC3(C)C)o1)C1CCCC1 | 95% |
| Cc1cc2c(cc1Cc1ccc(C(=O)NC3CCCC3)o1)C(C)(C)CCC2(C)C | 73% |
| CCN(CC)CCCC(C)NC(=O)c1ccc(Cc2cc3c(cc2C)C(C)(C)CCC3(C)C)o1 (centres unmarked) | 99% |
| Cc1cc2c(cc1Cc1ccc(C(=O)N3CCCCC3CCN3CCCCC3)o1)C(C)(C)CCC2(C)C (centres unmarked) | 103% |
| C=CCN(C(=O)c1ccc(Cc2cc3c(cc2C)C(C)(C)CCC3(C)C)o1)C1CCCCC1 | 65% |
| COC(=O)C1CN(C(=O)c2ccc(Cc3cc4c(cc3C)C(C)(C)CCC4(C)C)o2)CC(C)C1=O (centres unmarked) | 26% |
| Cc1ccc(N2CCN(C(=O)c3ccc(Cc4cc5c(cc4C)C(C)(C)CCC5(C)C)o3)CC2)cc1C | 75% |
| Cc1cc2c(cc1Cc1ccc(C(=O)NC(C)(C)CC(C)(C)C)o1)C(C)(C)CCC2(C)C [drawing 1577] | 66% |
| Cc1cc2c(cc1Cc1ccc(C(=O)NC3CCC(C)CC3)o1)C(C)(C)CCC2(C)C (centres unmarked) | 64% |
| Cc1cc2c(cc1Cc1ccc(C(=O)N3CCN(c4ccccc4O)CC3)o1)C(C)(C)CCC2(C)C | 36% |
| Cc1cc2c(cc1Cc1ccc(C(=O)N(C)CCCN(C)C)o1)C(C)(C)CCC2(C)C [drawing 1516] | 92% |
| CCOC(=O)CCNC(=O)c1ccc(Cc2cc3c(cc2C)C(C)(C)CCC3(C)C)o1 [drawing 1592] | 99% |
| Cc1cc2c(cc1Cc1ccc(C(=O)N(C)CC(O)c3ccc(O)cc3)o1)C(C)(C)CCC2(C)C (centres unmarked) | 34% |
| Cc1cc2c(cc1Cc1ccc(C(=O)NC(CO)CC3CCCCC3)o1)C(C)(C)CCC2(C)C (centres unmarked) [drawing 1465] | 76% |
| Cc1cc2c(cc1Cc1ccc(C(=O)NC3CCC3)o1)C(C)(C)CCC2(C)C [drawing 1456] | 60% |
| CCN(CC)C(=O)C1CCCN(C(=O)c2ccc(Cc3cc4c(cc3C)C(C)(C)CCC4(C)C)o2)C1 (centres unmarked) | 21% |
| Cc1cc2c(cc1Cc1ccc(C(=O)NC(C)CN(C)C)o1)C(C)(C)CCC2(C)C (centres unmarked) [drawing 1584] | 92% |
| Cc1cc2c(cc1Cc1ccc(C(=O)N3CCC(N4CCCC4)CC3)o1)C(C)(C)CCC2(C)C [drawing 1458] | 96% |
| CCN(CC)CCCC(C)N(Cc1ccc(F)cc1)C(=O)c1ccc(Cc2cc3c(cc2C)C(C)(C)CCC3(C)C)o1 (centres unmarked) | 102% |

Now from value to compound:

| inhibition at 10 µM | Compound |
| --- | --- |
| 101% | Cc1cc2c(cc1Cc1ccc(C(=O)N(Cc3cccnc3)Cc3cccnc3)o1)C(C)(C)CCC2(C)C [drawing 1538] |
| 97% | Cc1cc2c(cc1Cc1ccc(C(=O)N(Cc3cccnc3)CC(C)c3ccccc3)o1)C(C)(C)CCC2(C)C (centres unmarked) |
| 62% | CCOC(=O)CN(Cc1ccccc1)C(=O)c1ccc(Cc2cc3c(cc2C)C(C)(C)CCC3(C)C)o1 [drawing 1494] |
| 91% | COc1ccccc1CN(C(=O)c1ccc(Cc2cc3c(cc2C)C(C)(C)CCC3(C)C)o1)C1CCN(Cc2ccccc2)C1 (centres unmarked) [drawing 1558] |
| 28% | Cc1cc2c(cc1Cc1ccc(C(=O)N(Cc3ccc(O)cc3)C3CCN(Cc4ccccc4)CC3)o1)C(C)(C)CCC2(C)C |
| 100% | Cc1cc2c(cc1Cc1ccc(C(=O)N(Cc3cccnc3)Cc3cccn3C)o1)C(C)(C)CCC2(C)C [drawing 1285] |
| 72% | Cc1cc2c(cc1Cc1ccc(C(=O)N3CCC(O)(c4ccccc4)CC3)o1)C(C)(C)CCC2(C)C |
| 91% | Cc1cc2c(cc1Cc1ccc(C(=O)N3CCN(C(C)c4ccccc4)CC3)o1)C(C)(C)CCC2(C)C (centres unmarked) |
| 44% | Cc1cc2c(cc1Cc1ccc(C(=O)N3CCN(c4ccc(OCc5ccccc5)cc4)CC3)o1)C(C)(C)CCC2(C)C |
| 30% | Cc1cc2c(cc1Cc1ccc(C(=O)N(CCC(c3ccccc3)c3ccccc3)C(C)c3ccccc3)o1)C(C)(C)CCC2(C)C (centres unmarked) |
| 103% | Cc1ccc(CN(CCCN2CCOCC2)C(=O)c2ccc(Cc3cc4c(cc3C)C(C)(C)CCC4(C)C)o2)cc1 |
| 86% | Cc1cc2c(cc1Cc1ccc(C(=O)N3CCN(C/C=C/c4ccccc4)CC3)o1)C(C)(C)CCC2(C)C |
| 73% | COc1ccc(N2CCN(C(=O)c3ccc(Cc4cc5c(cc4C)C(C)(C)CCC5(C)C)o3)CC2C)cc1 (centres unmarked) |
| 69% | Cc1cc2c(cc1Cc1ccc(C(=O)N(Cc3ccco3)C3CC(=O)N(C)C3=O)o1)C(C)(C)CCC2(C)C (centres unmarked) [drawing 1504] |

Same assay, conditions: 1 h, substrate remaining; 10 uM compound; closer to zero = closer to 100% inhibition; read-out: S%R 10 uM mGnRHR

| Compound | remaining activity at 10 µM |
| --- | --- |
| Cc1cc2c(cc1Cc1ccc(C(=O)N3CCC(C(N)=O)CC3)o1)C(C)(C)CCC2(C)C [Compound 463] | -5% |
| Cc1cc2c(cc1Cc1ccc(C(=O)NCc3ccc(F)c(F)c3)o1)C(C)(C)CCC2(C)C [Compound 519] | 0% |
| Cc1cc2c(cc1Cc1ccc(C(=O)NC(C)C3CCCCC3)o1)C(C)(C)CCC2(C)C (centres unmarked) [Compound 546] | 29% |
| CCN(CC)CCN(C)C(=O)c1ccc(Cc2cc3c(cc2C)C(C)(C)CCC3(C)C)o1 [Compound 532] | 12% |
| Cc1cc2c(cc1Cc1ccc(C(=O)N3CCC(O)CC3)o1)C(C)(C)CCC2(C)C [Compound 641] | 23% |
| Cc1cc2c(cc1Cc1ccc(C(=O)N3CCN(CC(=O)N4CCCC4)CC3)o1)C(C)(C)CCC2(C)C [Compound 555] | 21% |
| Cc1cc2c(cc1Cc1ccc(C(=O)NCCC(C)O)o1)C(C)(C)CCC2(C)C (centres unmarked) [Compound 671] | 12% |
| Cc1cc2c(cc1Cc1ccc(C(=O)N(C)CC3OCCO3)o1)C(C)(C)CCC2(C)C [Compound 576] | 15% |
| Cc1cc2c(cc1Cc1ccc(C(=O)NC(C)c3ccc([N+](=O)[O-])cc3)o1)C(C)(C)CCC2(C)C (centres unmarked) [Compound 639] | 57% |
| Cc1cc2c(cc1Cc1ccc(C(=O)NCCNCCNc3ccccc3)o1)C(C)(C)CCC2(C)C [Compound 458] | 29% |
| CCC(CO)NC(=O)c1ccc(Cc2cc3c(cc2C)C(C)(C)CCC3(C)C)o1 (centres unmarked) [Compound 597] | 11% |
| Cc1cc2c(cc1Cc1ccc(C(=O)NCCCCCO)o1)C(C)(C)CCC2(C)C [Compound 593] | 2% |
| Cc1cc2c(cc1Cc1ccc(C(=O)N3CCN(C4CCCCC4)CC3)o1)C(C)(C)CCC2(C)C [Compound 701] | -1% |
| Cc1cc2c(cc1Cc1ccc(C(=O)N3CCC(C(=O)c4ccc(F)cc4)CC3)o1)C(C)(C)CCC2(C)C [Compound 573] | 37% |
| CC(=O)N1CCN(C(=O)c2ccc(Cc3cc4c(cc3C)C(C)(C)CCC4(C)C)o2)CC1 [Compound 577] | 30% |
| CCCCN(CCCC)CCCNC(=O)c1ccc(Cc2cc3c(cc2C)C(C)(C)CCC3(C)C)o1 [Compound 692] | -2% |
| Cc1cc2c(cc1Cc1ccc(C(=O)NCC3CCCC(CNc4nccc(NCC5CCCO5)n4)C3)o1)C(C)(C)CCC2(C)C (centres unmarked) [Compound 492] | -7% |
| COC(OC)C(C)NC(=O)c1ccc(Cc2cc3c(cc2C)C(C)(C)CCC3(C)C)o1 (centres unmarked) [Compound 662] | 3% |
| COc1cc(CNC(=O)c2ccc(Cc3cc4c(cc3C)C(C)(C)CCC4(C)C)o2)cc(OC)c1OC [Compound 502] | -2% |
| Cc1cc2c(cc1Cc1ccc(C(=O)NC(C)CN(C)C)o1)C(C)(C)CCC2(C)C (centres unmarked) [Compound 625] | 8% |
| COC(CNC(=O)c1ccc(Cc2cc3c(cc2C)C(C)(C)CCC3(C)C)o1)OC [Compound 607] | -2% |

Further lines, results first:

| remaining activity at 10 µM | Compound |
| --- | --- |
| 35% | Cc1cc2c(cc1Cc1ccc(C(=O)N3CCN(Cc4ccc(C(C)(C)C)cc4)CC3)o1)C(C)(C)CCC2(C)C [Compound 658] |
| 38% | CCOC(=O)CN(Cc1ccccc1)C(=O)c1ccc(Cc2cc3c(cc2C)C(C)(C)CCC3(C)C)o1 [Compound 536] |
| 15% | Cc1cc2c(cc1Cc1ccc(C(=O)N3CCCC3C(=O)OCc3ccccc3)o1)C(C)(C)CCC2(C)C (centres unmarked) [Compound 651] |
| 27% | COc1ccccc1N1CCN(C(=O)c2ccc(Cc3cc4c(cc3C)C(C)(C)CCC4(C)C)o2)CC1 [Compound 554] |
| 5% | Cc1cc2c(cc1Cc1ccc(C(=O)N(Cc3cccnc3)Cc3ccccc3F)o1)C(C)(C)CCC2(C)C [Compound 703] |
| 0% | Cc1cc2c(cc1Cc1ccc(C(=O)N(Cc3cccnc3)Cc3cccnc3)o1)C(C)(C)CCC2(C)C [Compound 610] |
| 43% | Cc1cc2c(cc1Cc1ccc(C(=O)N(C)CCC=C3c4ccccc4CCc4ccccc43)o1)C(C)(C)CCC2(C)C [Compound 535] |
| 12% | Cc1cc2c(cc1Cc1ccc(C(=O)N(C)C3CCN(C)CC3)o1)C(C)(C)CCC2(C)C [Compound 548] |
